Test results taken from BindingDB's records for doi:10.1016/s0960-894x(01)00026-9 (University of Minnesota, 2001).

What was measured:
[1] = molecular target: Serine/threonine-protein phosphatase PP1 catalytic subunit (Oryctolagus cuniculus); assay: Inhibitory concentration against Protein phosphatase 1(10 nM) isolated from rabbit muscle
[2] = Inhibitory concentration against Protein phosphatase 2A (25 nM) isolated from bovine myocardial tissue

| IC50 [1] [µM] | IC50 [2] [µM] | SMILES |
| --- | --- | --- |
| 94 | 0.304 | C=C1[C@@H](O)[C@@H]2O[C@]3(CC[C@H](/C=C/[C@@H](C)[C@@H]4CC(C)=C[C@@]5(O[C@H](C[C@@](C)(O)C(=O)O)CC[C@H]5O)O4)O3)CC[C@H]2O[C@@H]1CO [okadaic acid analogue] |
| – | > 1000 | C=C1[C@@H](O)[C@@H]2O[C@]3(CCCO3)CC[C@H]2O[C@@H]1[C@@H](O)C[C@H](C)[C@H]1O[C@@]2(CCCCO2)CC[C@H]1C [okadaic acid analogue] |

| SMILES | IC50 [1] [µM] | IC50 [2] [µM] |
| --- | --- | --- |
| C=C1[C@@H](O)[C@@H]2O[C@]3(CC[C@H](/C=C/[C@@H](C)[C@@H]4CC(C)=C[C@@]5(O[C@H](C[C@@](C)(O)C(=O)O)CC[C@H]5O)O4)O3)CC[C@H]2O[C@@H]1[C@@H](O)C[C@H](C)[C@H]1O[C@@]2(CCCCO2)CC[C@H]1C [okadaic acid analogue] | – | 0.007 |
